Experiments:
CD4+ human T cells = assay: Human Autoimmune and Inflammatory Response Gene Array, anti-CD3 stimulated T cells; assay type: cell-based; conditions: 120 min anti-CD3; for % increase by Amp.: ampicillin 50 μg/ml
Procedure: T cells were purified from the peripheral bloods of healthy human donors (Blood Bank, Sheba Medical center). The whole blood was incubated (20 min, 22° C.) with RosetteSep™ human T cell enrichment mixture (StemCell Technologies, Vancouver, Canada). The remaining unsedimented cells were then loaded onto lymphocyte separation medium (ICN Biomedicals, Irvine, Calif.), isolated by density centrifugation, and washed with PBS. […] In a second round of purification, CD3^+ T cells were labeled for selection with a magnetically coupled mAb against CD4 (Miltenyi Biotec, Auburn, Calif.).
Human CD4 T cells were isolated as described, and incubated in 24 well plates (Nunc), 4×10^6 cells/ml with plate bound anti-human CD3 (OKT3) at 2 μg/ml. The stimulation was performed in RPMI medium supplemented with 0.1% BSA. […] RNA was extracted from samples and used to prepare probes for gene array in accord with the manufacturer's instructions (SuperArray Bioscience, Frederick, Md.). Adequate labeling of the probes was tested before hybridization. Three healthy donors were tested in stimulation with cefuroxime. The membranes were analyzed online with the Image Data Acquisition and Expression Analysis (SuperArray Bioscience).
The Human Autoimmune and Inflammatory Response Gene Array (SuperArray Bioscience corporation, Frederick, Md., USA) was used for analysis of gene expression by the T cells. This array contains 367 genes including cytokines, chemokines and their receptors, transcription factors and signaling proteins. […] Analysis of the results was performed using the GEArray analysis program (www.SuperArray.com). […] To verify the results detected by the gene array study, a panel of six genes was designed and tested by real-time PCR: CCR4, ACVR2, JAK1, STAT4, TLR2 and NFKBIE. The cDNA that was used was prepared from the same RNA used for the gene array experiment.

[1] = system: encephalitogenic BP10 T-cell line; assay: Adoptive EAE by BP10 line stimulated in vitro with test substance; assay type: in vivo, rat; conditions: BP10 line stimulated 3 days with MBP in presence of 50 μg/ml; 10^7 cells IP per rat
Excerpt: The ability of a compound to enhance T cell activity may be determined, for example, using an in vivo assay testing the effect of a given compound on the severity of adoptive (passive) EAE, namely, EAE which is induced by the injection of activated encephalitogenic T cell line to the model animal. In order to test a compound, the encephalitogenic T cells are activated in the presence of the compound prior to injection. An exemplary procedure is described in the Examples section hereinbelow.
Antigen-specific T-cell lines were established from lymph node cells that had been stimulated with myelin basic protein (MBP; 10 μg/ml) for 3 days in stimulation medium as described below. Following stimulation, the T-cell blasts were isolated on Lympho-prep (Nycomed Pharma, Oslo, Norway) and seeded in propagation medium. Propagation medium was identical to stimulation medium without autologous serum, but supplemented with fetal calf serum 10% and T-cell growth factors from the supernatant of Con A stimulated spleen cells 10% (Mor et al. (1990) J Clin Invest, 85, 1594-1598). Animals were injected intra-peritoneally with 10^7 MBP-stimulated T cells, following 6-8 cycles of in vitro stimulations. It is known that MBP-reactive lines undergo a reduction in pathogenicity after 6 or more in vitro stimulations. In some experiments the BP10 line was stimulated with phorbol myristate acetate (PMA; 50 ng/ml) and ionomycin (500 ng/ml) for 3 days in stimulation medium, without antigen-presenting cells.
Active EAE was induced by subcutaneous injection of 25 μg guinea-pig MBP (GpMBP) in complete Freund's adjuvant (CFA). CFA was prepared by adding 4 mg/ml Mycobacterium tuberculosis H37Ra (Difco, Mich.) to incomplete Freund's adjuvant (IFA). Adoptive EAE was transferred by intra-peritoneal injection of guinea-pig MBP-activated cells of the BP10 line as described in Mor et al. (1993) J Clin Invest, 92, 2199-2206. […] Clinical scoring was: +1, paralysis of tail; +1.5, paresis of posterior paws and ataxia; +2, paraplegia; +3, paralysis extending to thoracic spine; +4, a moribund state.
Treatment with cefuroxime in vivo could affect many different host agents involved in EAE or AA as well as influencing the rats' bacterial flora. To test whether the antibiotic might directly modify the behavior of effector T cells, an encephalitogenic T-cell line was stimulated in the presence or absence of cefuroxime in vitro. The weakly encephalitogenic BP10 line was used, and was stimulated for 3 days with MBP in the presence or absence of cefuroxime (50 μg/ml). The activated T cells were then washed to remove the antibiotic, the T cells were injected intra-peritoneally into naïve recipient rats (10^7 per rat), and EAE was scored. The BP10 line at later stimulations was used, when its pathogenic potential is reduced, allowing to detect both suppression and enhancement of disease. […] To rule out antigen presenting cells (APC) as the target of the beta-lactam antibiotic, the encephalitogenic BP10 line was stimulated without APC using PMA (50 ng/ml) and Ionomycin (500 ng/ml) in the presence or absence of cefuroxime.

CC1(C)S[C@@H]2[C@H](NC(=O)[C@H](N)c3ccccc3)C(=O)N2[C@H]1C(=O)O [ampicillin]
number of the 57 cefuroxime-down-regulated genes up-regulated (CD4+ human T cells; 50 μg/ml): 56 genes
% increase by Amp. (CD4+ human T cells; gene ACTB): +196%
% increase by Amp. (CD4+ human T cells; gene ACVR1, A low expression): +53%
% increase by Amp. (CD4+ human T cells; gene ACVR2, A low expression): +85%
% increase by Amp. (CD4+ human T cells; gene CCL5): +25%
% increase by Amp. (CD4+ human T cells; gene CCL11): +107%
% increase by Amp. (CD4+ human T cells; gene CCR4): +31%
% increase by Amp. (CD4+ human T cells; gene CCR6): +83%
% increase by Amp. (CD4+ human T cells; gene CCR7): +43%
% increase by Amp. (CD4+ human T cells; gene CD28): +175%
% increase by Amp. (CD4+ human T cells; gene CD40LG): +67%
% increase by Amp. (CD4+ human T cells; gene CREBBP): +49%
% increase by Amp. (CD4+ human T cells; gene CXCL10): +25%
% increase by Amp. (CD4+ human T cells; gene EGR3): −25%
% increase by Amp. (CD4+ human T cells; gene GFI1): +10%
% increase by Amp. (CD4+ human T cells; gene HRAS, A low expression): −12%
% increase by Amp. (CD4+ human T cells; gene IL1B, A low expression): +64%
% increase by Amp. (CD4+ human T cells; gene IL2RB): +93%
% increase by Amp. (CD4+ human T cells; gene IL2RG, A low expression): +78%
% increase by Amp. (CD4+ human T cells; gene IL9R): No change
% increase by Amp. (CD4+ human T cells; gene IL16, A low expression): +14%
% increase by Amp. (CD4+ human T cells; gene IRAK1): +171%
% increase by Amp. (CD4+ human T cells; gene JAK1): +161%
% increase by Amp. (CD4+ human T cells; gene JUN): +65%
% increase by Amp. (CD4+ human T cells; gene LTA): +48.5%
% increase by Amp. (CD4+ human T cells; gene MAP2K4): +150%
% increase by Amp. (CD4+ human T cells; gene MAP3K1, A low expression): +63%
% increase by Amp. (CD4+ human T cells; gene MAP3K2): +93%
% increase by Amp. (CD4+ human T cells; gene MAP3K7): +124%
% increase by Amp. (CD4+ human T cells; gene MAPK9): +46%
% increase by Amp. (CD4+ human T cells; gene NFKB1): +31%
% increase by Amp. (CD4+ human T cells; gene NFKB2): +195%
% increase by Amp. (CD4+ human T cells; gene NFKBIE): +132%
% increase by Amp. (CD4+ human T cells; gene NFKBIL1): +191%
% increase by Amp. (CD4+ human T cells; gene PAK1): +111%
% increase by Amp. (CD4+ human T cells; gene PIN1): +105%
% increase by Amp. (CD4+ human T cells; gene RANBP5): +108%
% increase by Amp. (CD4+ human T cells; gene REL): +132%
% increase by Amp. (CD4+ human T cells; gene RFX5): +137%
% increase by Amp. (CD4+ human T cells; gene RFXAP): +131%
% increase by Amp. (CD4+ human T cells; gene SDF2): +71%
% increase by Amp. (CD4+ human T cells; gene SELL): +124%
% increase by Amp. (CD4+ human T cells; gene SMAD4): +85%
% increase by Amp. (CD4+ human T cells; gene SMAD7, A low expression): +34%
% increase by Amp. (CD4+ human T cells; gene SP3): +47%
% increase by Amp. (CD4+ human T cells; gene SRF): +58%
% increase by Amp. (CD4+ human T cells; gene STAT1): +85%
% increase by Amp. (CD4+ human T cells; gene STAT4): +11%
% increase by Amp. (CD4+ human T cells; gene STAT6): no change
% increase by Amp. (CD4+ human T cells; gene TGFBR3): +139%
% increase by Amp. (CD4+ human T cells; gene TGIF, A low expression): +72%
% increase by Amp. (CD4+ human T cells; gene TLR2, A low expression): +419%
% increase by Amp. (CD4+ human T cells; gene TNFRSF11A, A low expression): +81%
% increase by Amp. (CD4+ human T cells; gene TNFα): +39%
% increase by Amp. (CD4+ human T cells; gene TRAF5, A low expression): +47%
% increase by Amp. (CD4+ human T cells; gene TRAF6, A low expression): +39%
% increase by Amp. (CD4+ human T cells; gene YY1): +152%
severity of adoptive EAE [1]: did not increase the severity of EAE

Source: patent publication US9345691B2, “Beta-lactam compounds for enhancing T cell-mediated immune responses” (STEM CELL MEDICINE LTD., priority 2011, dated 2016)
